In data set [1] the test system is granzyme B-expressing CD8+T cells. Nature of the data set: Granzyme B staining (FACS) of PBMCs. The data set is classed as cell-based, human. The settings on record: DMC 2.5 μM + BiTE; PBMCs of four healthy people; p=0.01. The method, then: The medium collected in section 1(4) above was centrifuged at 400 g for 5 minutes, and the supernatant was removed to leave the PBMC pellet. Each antibody (CD3, CD4, CD8, and CD45RA) was diluted 100-fold with 2% FBS- and 10 mM HEPES-supplemented HBSS medium (“HBSS+2% FBS+10 mM HEPES” medium). Such antibody diluents were individually added at 30 μL/tube to the pellet in which the supernatant was removed, followed by incubation at 4° C. for 30 minutes. After an HBSS+2% FBS+10 mM HEPES medium was added at 200 μL/tube, and centrifugation was performed at 400 g for 5 minutes, the supernatant was removed to leave the pellet. After the remaining PBMCs were suspended by adding a fix buffer at 100 μL/tube, incubation was performed for 30 minutes at 4° C.
The tube obtained after the completion of incubation was centrifuged at 400 g for 5 minutes to remove the supernatant and leave the PBMC pellet. After a wash buffer was added at 200 μL/tube to suspend the pellet, centrifugation was performed at 400 g for 5 minutes to remove the supernatant and leave the PBMC pellet. An anti-Granzyme B antibody was diluted 100-fold in a wash buffer, and the remaining PBMCs were suspended in the antibody diluent (30 μL/tube), followed by incubation for 30 minutes at 4° C. […]

A further data set deals with CD8+T cells. Nature of the data set: CytoTell assay, proliferative capacity of CD8+T cells. The class given is cell-based, human. The settings on record: DMC 2.5 μM + BiTE; PBMCs of five healthy people; 96 hours; p=0.007. As for the experimental part: PBMCs were collected from peripheral blood of healthy people according to the method described in section 1(1) above. A solution in which CytoTell red was mixed with the HBSS+2% FBS+10 mM HEPES medium was added to the collected PBMC pellet, followed by incubation at 37° C. for 30 minutes. After the completion of incubation, the supernatant was removed by centrifugation at 400 g for 5 minutes to leave the PBMC pellet. By adding a 10% FBS-supplemented RPMI medium, the remaining PBMCs were suspended to prepare a suspension of PBMCs having a cell count of 1×10^6/mL.
As in section 1(3) above, a U251 cell line, PBMCs, and BiTE, or a U251 cell line, PBMC, BiTE, and a test drug, were contacted and cultured at 37° C. for 96 hours.
After the completion of culture, the culture supernatant was collected, followed by washing in a 10% FBS-supplemented RPMI 1640 medium three times, and the media were also collected.
The collected medium was centrifuged at 400 g for 5 min, and the supernatant was removed to leave the PBMC pellet. Each antibody (CD3, CD4, CD8, and CD45RA) was diluted 100-fold with a HBSS+2% FBS+10 mM HEPES medium. The antibody diluents were individually added at 30 μL/tube to the pellet to suspend the remaining PBMCs, followed by incubation at 4° C. for 30 minutes. […]

In data set [2] the test system is CMV-specific cytotoxic T cells. Briefly: CMV-specific CTL induction (mixed CMV peptide/lymphocytes culture). The data set is classed as cell-based, human. The note with it: DMC 2.5 μM; 14 days after CMV peptide stimulation; PBMCs of one healthy person; p<0.05. As for the experimental part: CMV peptides adjusted to 10 μg/mL in a 10% FBS-supplemented RPMI medium was added to PBMCs of healthy people with an HLA type of 24:02, followed by culture in a 96-well plate for 3 days. […] The medium containing PBMCs in each well was transferred into a 24-well plate for scale-up, followed by culture for another 3 days in a 10% FBS-supplemented RPMI medium containing 10 μg/mL peptide+20 U/mL IL-2±2.5 μM DMC. The medium was replaced with a 10% FBS-supplemented RPMI medium containing 10 μg/mL peptide+20 U/mL IL-2±2.5 μM DMC, followed by culture for another 4 days (culture for 14 days).
After the completion of culture, centrifugation was performed at 400 g for 5 minutes to remove the supernatant and leave the PBMC pellet; and each antibody (CD3, CD4, and CD8) was diluted 100-fold, and CMV Tetramer was diluted 10-fold in a HBSS+2% FBS+10 mM HEPES medium, and added at 30 μL/tube to a PBMC pellet to suspend the PBMCs, followed by incubation at 4° C. for 30 minutes. By adding the HBSS+2% FBS+10 mM HEPES medium at 200 μL/tube, centrifugation was performed at 400 g for 5 minutes. The supernatant was removed to leave the PBMC pellet.
The PBMCs left in the HBSS+2% FBS+10 mM HEPES medium were suspended, and the suspension was subjected to FACS analysis. […]

The subject of data set [3] is U251 cell line. Nature of the data set: Tumor-cytotoxic activity of T cells in lung cancer tissue. The note with it: BiTE + test drug (DMC); n=5 patients. The data set is classed as cell-based, human. The method, then:
Regarding the tumor-cytotoxic activity of T cells in lung cancer tissue, cells were collected from lung cancer tissue according to the following method. The tumor-cytotoxic activity was measured as the activity of the cell population.
The cancer tissue was transferred to a 6-cm dish and minced. The cancer tissue was then placed in a tissue stirring solution (tumor dissociation Kit (Miltenyi Biotec) was added to HBSS+2% FBS+10 mM HEPES), followed by stirring with a gentle MACS™ Dissociator (Miltenyi Biotec). Incubation was then performed by rotating the mixture in an incubator maintained at 37° C. for 30 minutes. […] The tumor-cytotoxic activity of the collected cells was measured in accordance with the same method as in section I.1(1) to (5) above. […]
(§1) According to the method described in section I.5 above, T cells in tumor tissue of a lung cancer patient were collected; and by using such cells, tumor-cytotoxic activity was measured to examine the effect of the tetracycline-based compound. Specifically, T cells in tumor tissue of a lung cancer patient were collected according to the method described in section I.5 above; and the presence ratio of IFNγ-producing CD8^+T cells was measured according to the method described in section I.6 above, thus examining the effect of the tetracycline-based compound.

Data set [4] has as its system IFNγ-producing CD8+T cells. Nature of the data set: IFNγ production assay on cells from lung cancer tissue. The class given is cell-based, human. The note with it: BiTE + test drug (DMC), n=3 patients. The method, then:
The IFNγ production capacity of cells in all media that were collected in section 5 in accordance with the method described in section 1(4) above was measured using an IFNγ secretion assay kit (Miltenyi Biotec).
The medium collected in section 1(4) above was centrifuged at 400 g for 5 minutes to remove the supernatant. An IFNγ catch reagent diluted 100-fold in a 10% human serum-supplemented AIM medium was added at 100 μL/tube to the remaining PBMC pellet to suspend the PBMCs, followed by incubation at 4° C. for 10 minutes.
A 10% human serum-supplemented AIM medium heated to 37° C. was dispensed at 1 mL/tube into the tube subjected to the incubation. While stirring the tube, incubation was performed at 37° C. for 45 minutes. […]
as §1

Another data set relates to CT26WT cells. Nature of the data set: Dependence on CD8+T cells of the enhancement of the anti-PD-L1 antibody in vivo (Example 9). On the set-up: species or system BALB/c mice. The method, then: In the same manner as in Example 8, CT26WT cells were cultured, and subcutaneously inoculated to 6-week-old BALB/c mice (Day 0).
Before the administration of DMC or water and an anti-PD-L1 antibody, the anti-CD8 antibody (InVivo MAb anti-mouse CD8α, produced by BioXCell) was intraperitoneally administered at 400 μg/200 μL/mouse to the CD8 depletion group on Day 6. Control IgG was administered at 400 μg/200 μL/mouse to the other groups.
Next, administration of DMC was started on Day 7. The DMC was dissolved in saline, and then orally administered at 200 μL/mouse using an oral sonde. In the groups free of DMC, distilled water was orally administered at 200 μL/mouse. The DMC was administered once daily from Day 7 to Day 12.
Subsequently, on Day 10, an anti-PD-L1 antibody or control IgG was intraperitoneally administered at 200 μg/200 μL/mouse.
On Day 10 and Day 13, the tumor size was measured. The tumor volume was calculated in the same manner as in Example 8.

Data set [5] deals with U251 cell line. Nature of the data set: Tumor-cytotoxic activity using peripheral blood mononuclear cells with EphA2-CD3 BiTE. The note with it: test drug 2.5 μM + BiTE 100 ng/mL; PBMCs of healthy people + U251; 48 hours; n=3; DMC, MC, CTC p<0.01; TC, MINO p<0.05.
Description: Thereafter, by measuring the degree of cytotoxicity to the tumor cells (tumor-cytotoxic activity) by the PBMCs, the anti-tumor activity of T cells in the PBMCs was evaluated.
(1) A U251 cell line was suspended in a RPMI1640 medium containing 10% FBS (a 10% FBS-supplemented RPMI1640 medium), and then detached with trypsin. The cell line was suspended in a 10% FBS-supplemented RPMI1640 medium such that the cell count was 1×10^5/mL, thereby preparing a cell suspension. The cell suspension was seeded in a 96-well plate at a rate of 100 μL/well, and incubated in a wet incubator at 37° C. for 18 hours in the presence of 5% CO2 gas. […]
(3) EphA 2-CD3 BiTE (registered trademark) containing an antigen-binding domain for EphA2 and an antigen-binding domain for CD3 in the molecule was prepared at 400 ng/mL in a 10% FBS-supplemented RPMI 1640 medium (“BiTE solution”). […] The amount of the 10% FBS-supplemented RPMI medium per well was determined so that the total final amount was 200 μL. […]
(5) The absorbance at 492 nm of each well of the 96-well microplate after the completion of incubation in step (4) was measured with a microplate reader. Subsequently, tumor-cytotoxic activity was calculated in accordance with the following equation.
Absorbance of a well consisting of U251 cell line and PBMCs=A […]

In the case of `CN(C)[C@@H]1C(O)=C(C(N)=O)C(=O)[C@@]2(O)C(O)=C3C(=O)c4c(O)ccc(Cl)c4[C@@H](O)[C@H]3C[C@@H]12` [DMC, demethyl chlortetracycline], the “presence ratio of granzyme B-expressing CD8+T cells as compared to BiTE alone” value in data set [1] was “high”. For the same compound, the “proliferative capacity of CD8+T cells as compared to BiTE alone” value in the data set on CD8+T cells is given as “high”. Moreover, in data set [2], the “presence ratio of CMV-specific cytotoxic T cells (CMV Tetramer+CD8+T cells), DMC+ as compared to DMC−” value is “significantly high”. The “anti-tumor activity of T cells in lung cancer tissue compared to BiTE alone” value in the data set on U251 cell line [3] is reported as “enhanced”. Also, the “presence ratio of IFNγ-producing CD8+T cells compared to BiTE alone” value in data set [4] is recorded as “increased”. Further, the “tumor volume on Day 13” value in the data set on CT26WT cells (Example 9, DMC 30 mg/kg oral Day 7 to Day 12, anti-PD-L1 antibody or control IgG 200 μg/mouse ip Day 10, no CD8 depletion) is “about 100 mm^3”. The “increase in tumor volume as compared to the aPD-L1+H2O group” value in the data set on CT26WT cells (IgG+DMC group, DMC 30 mg/kg oral) was “more inhibited”.
In the case of `CN(C)[C@@H]1C(=O)C(C(N)=O)=C(O)[C@@]2(O)C(=O)C3=C(O)c4c(O)cccc4[C@@](C)(O)[C@H]3C[C@@H]12` [TC, tetracycline], in the data set on U251 cell line [5], the “T-cell anti-tumor activity (tumor-cytotoxic activity) as compared to BiTE alone” value is “enhanced”.

These data come from US20210113594A1, “TUMOR IMMUNOMODULATOR” (OSAKA UNIVERSITY, priority 2018, published 2021).
